Reference: patent US20130029928A1 (priority 2010, published 2013)
Counter-ions that a name gives are not always drawn. Like-named read-outs stand apart in the source and are kept apart here.

Columns and labels:
[1] = system: MDA-MB-157; test: ATP depletion cytotoxicity assay 48 hr; type: cell-based, human; conditions: MDA-MB-157; CXR1002 300 μM; 48 hours
Experimental: (§2) Assay replicates were independent in time and up to 4 replicates were performed per cell line.
(§3) Cells were plated at the optimal plating density for that cell line in 96-well plates and allowed to attach overnight. The next day, the medium was removed and replaced with fresh medium containing the dose ranges of test items. […] There were 3 replicates for each test item concentration.
(§4) Following exposure to Test Items, the CellTitre-Glo Luminescent Cell Viability Assay to measure ATP content was performed according to the manufacturer's detailed instructions (Promega Corporation, Technical Bulletin No. 288, and Cell notes, Issue 10, 2004).
(§5) Cells were plated at the optimal plating density for that cell line in 96-well plates and allowed to attach overnight. The next day, cells were pre-treated with the inhibitors UO126 or LY294002 (see Tables 18 & 20) for 2 hrs, the medium was removed and replaced with fresh medium containing the appropriate dose of the test item. […] Cells were exposed to these compounds in Roswell Park Memorial Institute (RPMI) medium containing 10% Foetal Calf Serum (FCS) and 2 mM Glutamine at 37° C. and 5% CO2 for 48 hours. There were 3 replicates for each test item concentration.
(§6) Following exposure to Test Items, the CellTitre-Glo Luminescent Cell Viability Assay to measure ATP content will be performed according to the manufacturer's detailed instructions (Promega Corporation, Technical Bulletin No. 288, and Cell notes, Issue 10, 2004).

[2] = Dietary APFO (300 ppm) study in rats: plasma glucose, triglycerides, cholesterol, AST, ALT, APFO level; type: in vivo, rat; parameters: Triglycerides / Cholesterol / Glucose: unit not given here; conditions: male, Sprague Dawley, rat, oral, 300 ppm in diet
Experimental: (§1) Rats were sacrificed at 7, 14, 28 and 84 days. Blood from each study animal was taken by cardiac puncture into lithium/heparin-coated tubes for separation of plasma. Plasma was analysed for glucose, triglycerides, cholesterol, AST and ALT (unpublished data).

[3] = system: Male Sprague Dawley rats; test: as above; type: in vivo, rat; parameters: Triglycerides / Cholesterol / Glucose: unit not given here; conditions: 300 ppm in diet
Experimental: as §1

[4] = system: hepatic peroxisome proliferation (PPARα); test: Hepatic peroxisome proliferation (cyanide-insensitive palmitoyl CoA oxidation) in rats; type: in vivo, rat; conditions: administration to rats
Description: The earliest recognised characteristic of PPARα agonists was their ability to induce peroxisome proliferation in hepatocytes. The PPARα response is reflected in the increased transcription of mitochondrial and peroxisomal lipid metabolism, sterol, and bile acid biosynthesis and retinol metabolism genes (Andersen (2008)).
Peroxisome proliferation occurs as a result of the interaction of a chemical with PPARα. This leads to an increase in the synthesis of peroxisomal and lipid-metabolising enzymes and, consequently, an increase in size and number of peroxisomes. Cyanide-insensitive palmitoyl CoA oxidation is an accepted marker of peroxisome proliferation, and was used to highlight PPARα activation in vitro and in vivo.

[5] = system: normal pancreas tissue; test: Microarray ER stress response in normal pancreas (28 day study in rat); type: in vivo
Description: Chemical toxicants such as tunicamycin and thapsigargin cause an accumulation of unfolded protein aggregates in the ER lumen (Schroder (2008)), (Harding (2002)), (Zhang (2008)). Whilst it is fair to say that many chemicals, drugs and toxicants induce ER stress, not all do. […] The phthalate DEHP and the PPARα agonist WY14,643 were also studied.

[6] = system: HT-29; test: SRB cytotoxicity assay 48 hr; type: cell-based, human; conditions: Homo sapiens, HT-29, 48 h, read-out: IC50 Values After 48 Hrs Exposure
Experimental: (§7) The SRB assay was performed according to the method specified by the NIC/NIH. […] Assay replicates were independent in time and up to 4 replicates were performed per cell line.

[7] = system: CaCo-2; test: SRB cytotoxicity assay 48 hr; type: cell-based, human; conditions: read-out: IC50 Values After 48 Hrs Exposure
Experimental: as §7

[8] = system: MCF-7; test: SRB cytotoxicity assay 48 hr; type: cell-based, human; conditions: Homo sapiens, MCF7, 48 h, read-out: IC50 Values After 48 Hrs Exposure
Experimental: as §7

[9] = system: MDA-MB-157; test: SRB cytotoxicity assay 48 hr; type: cell-based, human; conditions: Homo sapiens, MDA-MB-157, 48 h, read-out: IC50 Values After 48 Hrs Exposure
Experimental: as §7

[10] = system: HepG2; test: SRB cytotoxicity assay 48 hr; type: cell-based, human; conditions: read-out: IC50 Values After 48 Hrs Exposure
Experimental: as §7

[11] = system: Hep3B; test: SRB cytotoxicity assay 48 hr; type: cell-based, human; conditions: Homo sapiens, 48 h, read-out: IC50 Values After 48 Hrs Exposure
Experimental: as §7

[12] = system: PC3; test: SRB cytotoxicity assay 48 hr; type: cell-based, human; conditions: Homo sapiens, PC-3, 48 h, read-out: IC50 Values After 48 Hrs Exposure
Experimental: as §7

[13] = system: A549; test: SRB cytotoxicity assay 48 hr; type: cell-based, human; conditions: Homo sapiens, A549, 48 h, read-out: IC50 Values After 48 Hrs Exposure
Experimental: as §7

[14] = system: A2780; test: SRB cytotoxicity assay 48 hr; type: cell-based, human; conditions: Homo sapiens, A2780, 48 h, read-out: IC50 Values After 48 Hrs Exposure
Experimental: as §7

[15] = system: A375; test: SRB cytotoxicity assay 48 hr; type: cell-based, human; conditions: Homo sapiens, A-375, 48 h, read-out: IC50 Values After 48 Hrs Exposure
Experimental: as §7

[16] = system: panel of human tumour-derived cell lines; test: BrdU incorporation (cell proliferation) in the SRB cell line panel; type: cell-based; conditions: 48 hrs
[17] = system: panel of human tumour-derived cell lines; test: Hoechst 3342 staining (apoptotic cells) in the SRB cell line panel; type: cell-based
[18] = molecular target: CYP2C9 (Homo sapiens, UniProt P11712); test: Cytochrome P450 isozyme inhibition; type: in vitro ADME; conditions: under the conditions used (unpublished data); read-out: IC50 towards CYP2C9
Description: There is no evidence that APFO is metabolised in mammals once dissociated to form perfluorooctanoate.

[19] = system: Male Sprague Dawley rats; test: Dietary APFO (300 ppm) study in rats: plasma glucose, triglycerides, cholesterol, AST, ALT, APFO level; type: in vivo, rat; parameters: Glucose / Triglycerides / ALT / AST: unit not given here; conditions: for ALT / AST / Glucose / Triglycerides: plasma, 300 ppm in diet
[20] = without reported adverse effects; cited from earlier work
[21] = system: SW1353; test: ATP depletion cytotoxicity assay 48 hr; type: cell-based, human; conditions: DPQ 20 μM + CXR1002 0-1 mM; SW1353
Experimental: as §4
(§8) Cells were plated at the optimal plating density for that cell line in 96-well plates and allowed to attach overnight. […] Cells were exposed to these compounds in Roswell Park Memorial Institute (RPMI) medium containing 10% Foetal Calf Serum (FCS) and 2 mM Glutamine at 37° C. and 5% CO2 for 48 hours. There were 3 replicates for each test item concentration.
as §6

[22] = system: HPAFII; test: ATP depletion cytotoxicity assay 48 hr; type: cell-based, human; conditions: DPQ 20 μM + CXR1002 0-1 mM; HPAFII
Experimental: as §4, §8, §6

[23] = system: Capan2; test: ATP depletion cytotoxicity assay 48 hr; type: cell-based, human; conditions: DPQ 20 μM + CXR1002 0-1 mM; Capan2
Experimental: as §2, §3, §4, §5, §6

[24] = system: panel of tumour cell lines; test: ATP cytotoxicity assay on the panel of tumour cell lines (CXR1002 alone; test items alone vs combined with CXR1002); conditions: a number of the cell lines; single dose of CXR1002; 48 hours
Experimental: as §7
Cells were plated at the optimal plating density for that cell line in 96-well plates and allowed to attach overnight. The next day, the medium was removed and replaced with fresh medium containing the dose ranges of test items. The cells were exposed to 5-FU, cisplatin, docetaxel, doxorubicin, geldanamycin, gemcitabine, rapamycin or roscovitine in Roswell Park Memorial Institute (RPMI) medium containing 10% Foetal Calf Serum (FCS) and 2 mM Glutamine at 37° C. and 5% CO2 for 48 hours. […] There were 3 replicates for each test item concentration.
as §4

[25] = system: H (chondrosarcoma); test: ATP depletion cytotoxicity assay 48 hr; conditions: LY294002 12.5 μM + CXR1002 0-1 mM; sarcoma cell line H most notably
Experimental: as §2, §3
Cells were plated at the optimal plating density for that cell line in 96-well plates and allowed to attach overnight. The next day, cells were pre-treated with the inhibitors UO126 or LY294002 (see Tables 18 & 20) for 2 hrs, the medium was removed and replaced with fresh medium containing the appropriate dose of the test item. […] Cells that were to be treated with DPQ received no pre-treatment. […] There were 3 replicates for each test item concentration.

[26] = molecular target: liver X receptor β (LXRβ) (Homo sapiens, UniProt P55055); conditions: ref (14); cited from earlier work
[27] = molecular target: retinoid X receptor α (RXRα) (Homo sapiens, UniProt P19793); conditions: ref (14); cited from earlier work
[28] = system: primary rat hepatocytes; conditions: Bjork (2009); cited from earlier work
[29] = cited from earlier work
[30] = in vivo; cited from earlier work
[31] = system: rats; conditions: cited from earlier work
[32] = system: rats; conditions: doses below those causing maternal toxicity; cited from earlier work
[33] = following oral exposure; literature; cited from earlier work
[34] = system: Breast cancer cell lines; conditions: read-out: IC50 (Concentration, literature); Mol. Cancer Ther. (2002); cited from earlier work

Chain of CYP2C9 (P11712 whole entry): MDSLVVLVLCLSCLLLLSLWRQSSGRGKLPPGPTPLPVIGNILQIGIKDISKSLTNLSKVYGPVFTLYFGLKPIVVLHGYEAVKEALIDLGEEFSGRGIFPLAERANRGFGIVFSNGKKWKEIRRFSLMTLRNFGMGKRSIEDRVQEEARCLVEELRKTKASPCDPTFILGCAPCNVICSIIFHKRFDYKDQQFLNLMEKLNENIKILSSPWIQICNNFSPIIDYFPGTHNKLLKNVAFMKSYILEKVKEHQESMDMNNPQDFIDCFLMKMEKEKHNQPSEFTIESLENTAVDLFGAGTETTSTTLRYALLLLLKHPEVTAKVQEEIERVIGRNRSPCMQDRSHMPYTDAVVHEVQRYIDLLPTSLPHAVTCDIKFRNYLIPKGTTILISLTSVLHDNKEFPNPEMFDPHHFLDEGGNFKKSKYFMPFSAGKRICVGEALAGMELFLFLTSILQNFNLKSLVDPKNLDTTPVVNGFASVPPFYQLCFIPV
Chain of retinoid X receptor α (RXRα) (P19793 whole entry, species assumed): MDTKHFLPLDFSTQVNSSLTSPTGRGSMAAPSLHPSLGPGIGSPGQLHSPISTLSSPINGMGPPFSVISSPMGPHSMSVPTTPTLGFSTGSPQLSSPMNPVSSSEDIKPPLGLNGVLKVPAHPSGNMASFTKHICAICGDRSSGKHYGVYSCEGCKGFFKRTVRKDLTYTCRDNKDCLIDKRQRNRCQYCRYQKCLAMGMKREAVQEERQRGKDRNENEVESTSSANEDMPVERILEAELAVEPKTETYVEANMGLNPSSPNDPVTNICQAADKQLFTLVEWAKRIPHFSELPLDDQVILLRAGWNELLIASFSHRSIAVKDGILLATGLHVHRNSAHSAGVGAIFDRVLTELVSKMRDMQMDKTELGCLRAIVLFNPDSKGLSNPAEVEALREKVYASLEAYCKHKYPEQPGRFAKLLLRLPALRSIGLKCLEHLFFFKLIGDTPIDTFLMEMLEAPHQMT
Chain of liver X receptor β (LXRβ) (P55055 whole entry, species assumed): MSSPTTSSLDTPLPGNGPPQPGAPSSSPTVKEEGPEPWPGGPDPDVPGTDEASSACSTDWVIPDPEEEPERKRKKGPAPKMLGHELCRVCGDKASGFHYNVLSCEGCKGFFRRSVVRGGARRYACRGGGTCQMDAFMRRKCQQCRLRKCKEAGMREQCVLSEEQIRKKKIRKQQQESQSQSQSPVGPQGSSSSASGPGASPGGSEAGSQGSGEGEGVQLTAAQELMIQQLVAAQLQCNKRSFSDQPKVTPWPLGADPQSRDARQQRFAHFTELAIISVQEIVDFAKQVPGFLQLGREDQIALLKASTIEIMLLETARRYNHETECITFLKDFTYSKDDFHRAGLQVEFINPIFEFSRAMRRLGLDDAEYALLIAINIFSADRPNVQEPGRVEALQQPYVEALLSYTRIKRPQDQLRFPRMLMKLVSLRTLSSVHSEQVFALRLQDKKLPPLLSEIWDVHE

O=c1[nH]cc(F)c(=O)[nH]1 [5-FU, 5-Fluorouracil, reference compound]
sensitivity to combination with CXR1002 vs test item alone [1]: apparent increase in sensitivity

O=C(O)C(F)(F)C(F)(F)C(F)(F)C(F)(F)C(F)(F)C(F)(F)C(F)(F)F [APFO, Ammonium Perfluorooctanoate]
concentration at 2 weeks ([2]; week 2): 157 ± 77.8 µM
concentration at 4 weeks ([2]; week 4): 257 ± 38.9 µM
Triglycerides ([3]; Week 1): 0.41 ± 0.12
Cholesterol ([3]; Week 2): 1.55 ± 0.27
Triglycerides ([3]; Week 2): 0.62 ± 0.13
Cholesterol ([3]; Week 4): 1.70 ± 0.29
Glucose ([3]; Week 4): 15.34 ± 2.64
Cholesterol ([3]; Week 12): 1.75 ± 0.33
Glucose ([3]; Week 12): 13.12 ± 1.23
hepatic peroxisome proliferation (induction of cyanide-insensitive palmitoyl CoA oxidation) [4]: led to hepatic peroxisome proliferation
ER stress response [5]: not seen
IC50 [6]: 283 ± 5.8 µM
IC50 ([7]; Homo sapiens, Caco-2, 48 h): ~740 µM
IC50 [7]: 737 ± 245 µM
IC50 [8]: 388 ± 227 µM
IC50 [9]: 512 ± 194 µM
IC50 ([10]; Homo sapiens, HepG2, 48 h): ~160 µM
IC50 [10]: 167 ± 97.1 µM
IC50 [11]: 273 ± 80.2 µM
IC50 [12]: 317 ± 59.2 µM
IC50 [13]: 223 ± 35.4 µM
IC50 [14]: 260 ± 28.3 µM
IC50 [15]: 230 ± 10 µM
BrdU incorporation ([16]; 10 μM): No marked effects
BrdU incorporation ([16]; 30 μM): variable
BrdU incorporation ([16]; 300 μM, all but one of the cell lines): Significant suppression of BrdU incorporation
induction of apoptosis ([17]; 10 μM): little effect
induction of apoptosis ([17]; 30 μM): variable responses
induction of apoptosis ([17]; 300 μM): marked induction of apoptosis
IC50 [18]: 0.78 µM
adverse clinical observations ([19]; after one year of continuous dietary dosing, 300 ppm): No adverse clinical observations
ALT ([19]; Days 1 (so in the source)): 101.90 ± 12.19
ALT ([19]; Days 2 (so in the source)): 119.45 ± 19.27
AST ([19]; Days 2 (so in the source)): 120.00 ± 16.47
ALT ([19]; Days 4 (so in the source)): 98.99 ± 24.44
AST ([19]; Days 4 (so in the source)): 101.80 ± 19.17
ALT ([19]; Days 12 (so in the source)): 91.89 ± 14.88
AST ([19]; Days 12 (so in the source)): 92.63 ± 12.19
Glucose ([19]; Week 1): 14.31 ± 1.88
Glucose ([19]; Week 2): 16.98 ± 3.21
Triglycerides ([19]; Week 4): 0.57 ± 0.13
Triglycerides ([19]; Week 12): 0.63 ± 0.15
serum concentration in workers involved in manufacture [20]: ≤ 275 µM

CCCCC(CC)COC(=O)c1ccccc1C(=O)OCC(CC)CCCC (stereo not shown) [DEHP]
ER stress response [5]: No evidence of ER stress response was detected

O=C1NCCc2c(OCCCCN3CCCCC3)cccc21 [DPQ, reference compound]
sensitivity in conjunction with CXR1002 vs CXR1002 alone [21]: increased sensitivity
sensitivity in conjunction with CXR1002 vs CXR1002 alone [22]: increased sensitivity
sensitivity in conjunction with CXR1002 vs CXR1002 alone [23]: increased sensitivity

COc1cccc2c1C(=O)c1c(O)c3c(c(O)c1C2=O)C[C@@](O)(C(=O)CO)C[C@@H]3O[C@H]1C[C@H](N)[C@H](O)[C@H](C)O1 [Doxorubicin, Doxorubicin hydrochloride]
sensitivity to combination with CXR1002 vs test item alone [24]: increase the sensitivity

O=c1cc(N2CCOCC2)oc2c(-c3ccccc3)cccc12 [LY294002, reference compound]
cytotoxic efficacy in conjunction with CXR1002 vs CXR1002 alone [25]: increased efficacy

O=C(O)C(F)(F)C(F)(F)C(F)(F)C(F)(F)C(F)(F)C(F)(F)C(F)(F)F [PFOA, perfluorooctanoic acid]
activation of LXRβ [26]: Neither liver X receptor β (LXRβ) nor the common heterodimerization partner retinoid X receptor α (RXRα) are activated
activation of RXRα [27]: Neither liver X receptor β (LXRβ) nor the common heterodimerization partner retinoid X receptor α (RXRα) are activated
concentration causing increased expression of DDIT3/CHOP/GADD153 [28]: ≥ 30 µM
clearance of blood levels ([29]; female rats, 24 hrs after dosing): > 95%
accumulation in blood ([29]; female rats, 25 mg/kg oral after 10 previous similar doses): does not appear to accumulate
extent of biliary excretion ([29]; female rats): < 1.0%
time to peak blood levels ([29]; single gavage 25 mg/kg, rats): 1 to 2 h
total radioactivity absorbed ([29]; single oral dose 14C-PFOA 11 mg/kg, male rats, at 24 hrs): at least 93%
acute oral toxicity [30]: moderate acute oral toxicity
tumour incidence (liver, pancreas acinar cell, testes Leydig cell adenomas) ([31]; 30 ppm in the diet): not at 30 ppm
tumour incidence (liver, pancreas acinar cell, testes Leydig cell adenomas) ([31]; 300 ppm in the diet): increased incidence of benign tumours
teratogenic or foetotoxic effects [32]: no teratogenic or foetotoxic effects
metabolism [33]: not metabolised

N#CC(=C(/N)Sc1ccccc1N)/C(C#N)=C(\N)Sc1ccccc1N [U0126]
IC50 [34]: 10 to 20 µM

Cc1cccc(Nc2cc(Cl)nc(SCC(=O)O)n2)c1C [WY14,643]
ER stress response [5]: No evidence of ER stress response was detected

Nc1ccn([C@@H]2O[C@H](CO)[C@@H](O)C2(F)F)c(=O)n1 [gemcitabine, Gemcitabine]
sensitivity to combination with CXR1002 vs test item alone [24]: increase the sensitivity

CC[C@H](CO)Nc1nc(NCc2ccccc2)c2ncn(C(C)C)c2n1 [roscovitine, Roscovitine]
sensitivity to combination with CXR1002 vs test item alone [24]: increase the sensitivity
